Data reported in patent publication US11192869B2, “CFTR regulators and methods of use thereof” (THE REGENTS OF THE UNIVERSITY OF CALIFORNIA, priority 2015, dated 2021).
“Also recorded” adds a separate entry of the source.

Columns and labels:
[1] = 7-day chronic administration toxicity study; type: in vivo, mouse
Excerpt: (§1) Chronic administration and toxicity studies.

ocular surface = assay: Ocular surface potential difference measurements; type: in vivo, mouse; conditions: wild-type mice, 1-10 μM
Description: Ocular surface potential difference measurements. Open-circuit transepithelial PD were measured continuously in anesthetized mice in response to serial perfusions of different solutions over the ocular surface, as described (21). Mice were anesthetized with Avertin (2,2,2-tribromoethanol, 125 mg/kg intraperitoneal, Sigma-Aldrich, St. Louis, Mo., USA), and core temperature was maintained at 37° C. using a heating pad. Eyes were oriented with the cornea and conjunctiva facing upward and exposed by retracting the eyelid with cross-action forceps. Solutions were isosmolar (320±10 mOsM; compositions provided in ref. 21) and contained 10μ[…] □ indomethacin to prevent CFTR activation by prostaglandins. The ocular surface was perfused at 6 mL/min through plastic tubing using a multireservoir gravity pinch-valve system (ALA Scientific, Westbury, N.Y., USA) and variable-flow peristaltic pump (medium flow model; Fisher Scientific, Fair Lawn, N.J., USA). A probe catheter was fixed 1 mm above the cornea using a micropositioner and a suction cannula was positioned 3 mm from the orbit. The measuring electrode was in contact to the perfusion catheter and connected to a high-impedance voltmeter (IsoMilivolt Meter; WPI). The reference electrode was grounded via a winged 21-gauge needle filled with isosmolar saline, and inserted subcutaneously in the abdomen. Measuring and reference electrodes consisted of Ag/AgCl with 3 M KCl agar bridges.
Ocular surface potential difference measurements. Open-circuit transepithelial PD were measured continuously in anesthetized mice in response to serial perfusions of different solutions over the ocular surface, as described (21). Mice were anesthetized with Avertin (2,2,2-tribromoethanol, 125 mg/kg intraperitoneal, Sigma-Aldrich, St. Louis, Mo., USA), and core temperature was maintained at 37° C. using a heating pad. Eyes were oriented with the cornea and conjunctiva facing upward and exposed by retracting the eyelid with cross-action forceps. […]

cAMP = cAMP GloSensor luminescence assay in FRT cells; type: cell-based, rat; conditions: 5 μM, 10 min
Description: cAMP assay. Intracellular cAMP activity was measured using a GloSensor luminescence assay (Promega Corp., Madison, Wisconson, USA). FRT null cells were stably transfected with the pGloSensor cAMP plasmid and plated onto white 96-well microplates and grown to confluence. Cells were washed three times with PBS and incubated with 5 μM CFTRact-J027 for 10 min in the absence and presence of 100 nM forskolin. cAMP was assayed according to the manufacturer's instructions.
(§2) cAMP and cytotoxicity assays. Intracellular cAMP activity was measured using a GloSensor luminescence assay (Promega Corp., Madison, Wis., USA). FRT cells stably transfected with the pGloSensor cAMP plasmid (Promega Corp.) were cultured in white 96-well microplates (Corning Costar) overnight. Cells were then washed three times with PBS and incubated with 5 μM test compound for 10 min in the absence and presence of 100 nM forskolin.

FRT cells = assay: Cytotoxicity, Alamar Blue assay; type: cell-based, rat; conditions: 20 μM
Description: as §1, §2

tear secretion = assay: Tear secretion (phenol red thread); type: in vivo, mouse; conditions: single topical dose, for (at least) four hours
human wild-type CFTR = biological target: T1, human wild-type CFTR (Homo sapiens, UniProt P13569); assay: Short-circuit current in FRT cells expressing wild-type human CFTR; type: cell-based; conditions: short-circuit current, wild-type CFTR
T1 construct: expressed in transfected cells
Description: Short-circuit current measurement. Short-circuit current was measured in FRT cells stably expressing wild-type human CFTR cultured on porous filters as described. The basolateral solution contained 130 mM NaCl, 2.7 mM KCl, 1.5 mM KH2PO4, 1 mM CaCl2, 0.5 mM MgCl2, 10 mM glucose, and 10 mM Na-HEPES (pH 7.3, 37° C.). In the apical solution 65 mM NaCl was replaced by Na gluconate, and CaCl2 was increased to 2 mM, and the basolateral membrane was permeabilized with 250 μg/ml amphotericin B. Short-circuit current was measured in freshly harvested adult mouse colon at 37° C. using symmetrical Krebs-bicarbonate buffer.
Short-circuit current. Fischer rat thyroid (FRT) cells stably expressing wild-type human CFTR were cultured on Snapwell inserts (Corning Costar, Corning N.Y., USA) for short-circuit current (Isc) measurements. After 6-9 days in culture, when the transepithelial resistance was >1000 Ω/cm^2, the inserts were mounted in an Ussing chamber system (World Precision Instruments, Sarasota, Fla., USA). The basolateral solution contained 130 mM NaCl, 2.7 mM KCl, 1.5 mM KH2PO4, 1 mM CaCl2, 0.5 mM MgCl2, 10 mM glucose, and 10 mM Na-HEPES (pH 7.3). In the apical bathing solution, 65 mM NaCl was replaced by Na gluconate, and CaCl2 was increased to 2 mM. Both solutions were bubbled with air and maintained at 37° C. The basolateral membrane was permeabilized with 250 μg/ml amphotericin B (26, 27). Hemichambers were connected to a DVC-1000 voltage clamp via Ag/AgCl electrodes and 3 M KCl agar bridges for Isc recording.

[2] = Ocular toxicity after chronic topical dosing (slit-lamp, lissamine green); type: in vivo; conditions: chronically treated mice
Description: Lissamine green staining. To assess corneal epithelial disruption, 5 μL of lissamine green (LG) dye (1%) was applied to the ocular surface of isofluorane-anesthetized mice. Photographs of the eye were taken using a Nikon Digital camera adapted to an Olympus Zoom Stereo Microscope (Olympus, Center Valley, Pa., USA). Each corneal quadrant was scored on a 3-point scale by one blinded, trained observer, with the extent of staining in each quadrant classified as: 0, no staining; 1, sporadic (involving <25% of the total surface) staining; grade 2, diffuse punctate staining (25-75%); and grade 3, coalesced punctate staining (>75%). The total grade is reported as the sum of scores from all four quadrants, ranging from 0 to 12.

[3] = tested on: loperamide-induced mouse model of constipation; assay: Loperamide-induced mouse model of constipation

T1 sequence (P13569 whole entry): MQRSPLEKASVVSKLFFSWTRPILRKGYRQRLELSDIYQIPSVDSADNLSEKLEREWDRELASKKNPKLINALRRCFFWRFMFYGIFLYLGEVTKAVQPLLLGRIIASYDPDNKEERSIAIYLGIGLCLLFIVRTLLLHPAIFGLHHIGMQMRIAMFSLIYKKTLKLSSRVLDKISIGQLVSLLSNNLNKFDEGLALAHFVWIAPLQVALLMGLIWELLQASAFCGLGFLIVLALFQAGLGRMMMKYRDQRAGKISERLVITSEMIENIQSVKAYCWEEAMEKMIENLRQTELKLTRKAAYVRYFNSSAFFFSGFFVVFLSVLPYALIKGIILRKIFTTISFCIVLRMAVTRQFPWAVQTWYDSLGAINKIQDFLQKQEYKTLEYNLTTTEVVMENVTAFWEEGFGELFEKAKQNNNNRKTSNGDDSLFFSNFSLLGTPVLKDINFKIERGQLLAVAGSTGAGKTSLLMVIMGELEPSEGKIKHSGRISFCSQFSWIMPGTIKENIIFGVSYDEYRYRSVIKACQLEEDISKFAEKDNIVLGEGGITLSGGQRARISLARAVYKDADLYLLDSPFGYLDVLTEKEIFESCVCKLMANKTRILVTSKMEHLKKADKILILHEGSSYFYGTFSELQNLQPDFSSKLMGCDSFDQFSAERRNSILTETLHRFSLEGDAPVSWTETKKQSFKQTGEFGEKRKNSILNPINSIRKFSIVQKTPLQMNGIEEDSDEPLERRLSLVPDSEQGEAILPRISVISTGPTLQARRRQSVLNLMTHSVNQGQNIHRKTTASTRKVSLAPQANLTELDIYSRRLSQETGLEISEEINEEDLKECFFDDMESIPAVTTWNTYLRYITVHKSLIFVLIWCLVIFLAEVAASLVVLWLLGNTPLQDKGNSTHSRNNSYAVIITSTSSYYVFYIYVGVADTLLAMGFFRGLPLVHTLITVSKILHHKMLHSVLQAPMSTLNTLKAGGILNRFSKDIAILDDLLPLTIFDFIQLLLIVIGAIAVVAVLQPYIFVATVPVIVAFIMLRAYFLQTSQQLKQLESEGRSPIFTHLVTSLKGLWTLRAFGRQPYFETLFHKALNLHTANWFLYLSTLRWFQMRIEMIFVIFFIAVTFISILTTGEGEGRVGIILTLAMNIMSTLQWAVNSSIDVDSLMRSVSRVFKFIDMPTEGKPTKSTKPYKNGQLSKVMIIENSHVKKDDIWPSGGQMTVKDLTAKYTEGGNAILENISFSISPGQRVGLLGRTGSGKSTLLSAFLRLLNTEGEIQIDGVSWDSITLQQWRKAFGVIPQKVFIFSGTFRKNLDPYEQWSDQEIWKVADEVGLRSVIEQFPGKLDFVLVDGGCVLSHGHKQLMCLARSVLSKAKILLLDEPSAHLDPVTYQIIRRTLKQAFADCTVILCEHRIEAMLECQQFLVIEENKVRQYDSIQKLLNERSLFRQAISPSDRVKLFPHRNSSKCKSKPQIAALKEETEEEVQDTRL

Structure (SMILES): Nc1ccc([N+](=O)[O-])cc1-c1nc2ccccc2n(Cc2ccccc2)c1=O [CFTRact-J027, 3-(2-amino-5-nitrophenyl)-1-benzylquinoxalin-2(1H)-one]
- in vivo toxicity after chronic administration ([1]; 7-day study, 10 mg/kg oral, 10 mg/kg): did not show significant; also recorded: without apparent toxicity
- major serum chemistry and blood parameters ([1]; 7-day treated mice): did not affect
- change in ocular surface PD (in words) (ocular surface): large hyperpolarizations
- cellular cAMP elevation, compound alone (cAMP): without causing elevation of cytoplasmic cAMP; also recorded: does not elevate cellular cAMP
- cAMP when added together with forskolin (cAMP; forskolin 100 nM): does not further increase cAMP
- cytotoxicity (FRT cells): did not show cytotoxicity
- increase of tear fluid secretion (tear secretion): approximately two-fold
- CFTR activation (in words) (human wild-type CFTR): fully activated CFTR chloride conductance
- LG staining, corneal or conjunctival epithelial disruption [2]: no corneal or conjunctival epithelial disruption
- ocular toxicity by slit-lamp evaluation [2]: no signs of ocular toxicity
- stool weight, pellet number and water content ([3]; intraperitoneal 10 mg/kg, loperamide-treated mice, 3 h): normalizes stool output and water content
- stool output or water content in control mice ([3]; intraperitoneal, non-loperamide-treated mice): did not affect
- effect in cystic fibrosis mice lacking functional CFTR ([3]; loperamide model, CF mice): without effect
- efficacy after chronic administration ([3]; oral 10 mg/kg for 7 days, loperamide 1 h after final dose): remained effective
- stool output and water content ([3]; oral administration (10 mg/kg, 1 h prior to loperamide), 10 mg/kg): normalized stool output and water content; also recorded: effective in normalizing stool output and water content
